The experiment deals with T1, full length active recombinant SYK enzyme (Homo sapiens, UniProt P43405).
T1 construct: full length active recombinant SYK enzyme (Millipore, Calif.); purchased Millipore
In words: Inhibition of Syk tyrosine phosphorylation activity (LANCE TR-FRET kinase assay). It is filed as biochemical. The settings on record: activity in the Syk assays, class symbols. An excerpt:
The in vitro and in vivo human Syk activities of the inventive compounds can be determined by various procedures known in the art, such as a test for their ability to inhibit the activity of human plasma Syk. […] The IC50 value is the concentration (in nM) of the compound required to provide 50% inhibition of human Syk proteolytic activity.
An in vitro assay for detecting and measuring inhibition activity against Syk is as follows:
Inhibition of Syk Tyrosine Phosphorylation Activity
Potency of candidate molecules for inhibiting Syk tyrosine phosphorylation activity is assessed by measuring the ability of a test compound to inhibit Syk-mediated tyrosine phosphorylation of a Syk-specific substrate.
SYK tyrosine phosphorylation activity is measured using the LANCE™ Technology developed by Perkin Elmer Life and Analytical Sciences (Boston, Mass.). LANCE™ refers to homogeneous time resolved fluorometry applications using techniques such as time-resolved fluorescence resonance energy transfer assay (TR-FRET) (see generally for procedures in Perkin Elmer Application Note-How to Optimize a Tyrosine Kinase Assay Using Time Resolved Fluorescence-Based LANCE Detection, wwww.perkinelmer.com/lifesciences). The assay principle involves detection of a phosphorylated substrate using energy transfer from a phosphospecific europium-labeled antibody to streptavidin-allophycocyanin as an acceptor.
To test the ability of candidate molecules to inhibit SYK tyrosine phosphorylation activity, molecules are reconstituted in 30% DMSO and serially diluted 1:3 with the final dilution containing DMSO in the absence of the candidate molecule. The final DMSO concentration in the assay is 3%. Kinase assays are performed as a two part reaction. The first reaction is a kinase reaction and which comprises of a candidate molecule, full length active recombinant SYK enzyme (Millipore, Calif.) and biotin-labeled SYK-specific substrate biotin-DEEDYESP-OH. The second reaction involves termination of the kinase reaction and the simultaneous addition of the detection reagents-europium-labeled anti-phosphotyrosine reagent (Eu-W1024-PY100, Perkin Elmer, Boston, Mass.) and Streptavidin-Allophycocyanin detection reagent (SA-APC, Prozyme, CA). The kinase reaction is performed in a black U-bottom 96-well microtitre plate. The final reaction volume is 50 μL and contains a final concentration of 1 nM active SYK enzyme, 550 nM SYK-substrate, and 100 μM ATP diluted in a buffer containing 50 mM Tris pH 7.5, 5 mM MgCl2, and 1 mM DTT. The reaction is allowed to proceed for 1 hour at room temperature. The quench buffer contains 100 mM Tris pH 7.5, 300 mM NaCl2, 20 mM EDTA, 0.02% Brij35, and 0.5% BSA. The detection reagents are added to the reaction mixture at the following dilutions-1:500 for Eu-W1024-PY100 and 1:250 for SA-APC. The kinase reaction is terminated by the addition of 50 μL quench buffer containing the detection reagents. The detection is allowed to proceed for 1 hr at room temperature. Detection of the phosphorlated substrate in the absence and presence of inhibitors is measured in the TR-FRET instrument, Analyst HT (Molecular Probes, Sunnyvale, Calif.) and the condition for measurements are set up using CriterionHost Release 2.0 (Molecular Probes, Sunnyvale, Calif.). The settings used are a follows: excitation 360 nm, emission 665-7.5 nm, beam splitter 350 nm 50/50, flash 100 pulses, delay 60 us, integration 400 us, z-height 2 mm. Inhibition of SYK-tyrosine kinase activity is calculated as the maximum response observed in the presence of inhibitor, compared to that in the absence of inhibitor. IC50s were derived by non-linear regression analysis.
Turning to `NC(=O)c1ncc(N[C@@H]2CCNC2)nc1Nc1cncc(F)c1` [Example 115, (R)-3-((5-fluoropyridin-3-yl)amino)-5-(pyrrolidin-3-ylamino)pyrazine-2-carboxamide], the 50% inhibitory concentration (IC50) fell in the range of 100 to 1000 nM.

Take `NC(=O)c1ncc(N[C@H](Cc2c[nH]c3ccccc23)C(N)=O)nc1Nc1ccc2ncccc2c1` [Example 388, (R)-5-(1-amino-3-(1H-indol-3-yl)-1-oxopropan-2-ylamino)-3-(quinolin-6-ylamino)pyrazine-2-carboxamide]: the IC50 was 1 to 10 nM.

`CC[C@@H](Nc1nc(Nc2snc(C)c2I)c(C(N)=O)nc1I)C(N)=O` [Example 134, (R)-5-((1-amino-1-oxobutan-2-yl)amino)-6-iodo-3-((4-iodo-3-methylisothiazol-5-yl)amino)pyrazine-2-carboxamide]: the half-maximal inhibitory concentration (IC50) lay within 100 to 1000 nM.

`NC(=O)c1ncc(N[C@@H]2CCCC(F)(F)[C@@H]2N)nc1Nc1cc(C2CC2)ns1` [Example 242, 5-((1R,2R)-2-amino-3,3-difluorocyclohexylamino)-3-(3-cyclopropylisothiazol-5-ylamino)pyrazine-2-carboxamide]: the IC50 lay within 1 to 10 nM.

In the case of `NC(=O)c1ncc(N[C@H]2CC[C@@H](N)CC2)nc1Nc1cccc(-c2ncccn2)c1` [Example 184, 5-((1s,4s)-4-aminocyclohexylamino)-3-(3-(pyrimidin-2-yl)phenylamino)pyrazine-2-carboxamide], the concentration for half-maximal inhibition (IC50) was 1 to 10 nM.

`CC(=O)N1CC[C@@H](Nc2cnc(C(N)=O)c(Nc3ccc4ncccc4c3)n2)C1` [Example 111, (R)-5-((1-acetylpyrrolidin-3-yl)amino)-3-(quinolin-6-ylamino)pyrazine-2-carboxamide]: the IC50 is more than 1000 nM.

For `Cc1cc(Nc2nc(N[C@H](CC3CC3)C(N)=O)c(Cl)nc2C(N)=O)sn1` [Example 136, (R)-5-((1-amino-3-cyclopropyl-1-oxopropan-2-yl)amino)-6-chloro-3-((3-methylisothiazol-5-yl)amino)pyrazine-2-carboxamide], the IC50 was in the range of 10 to 100 nM.

With `CC[C@@H](Nc1cnc(C(N)=O)c(Nc2cc(CN3CCOCC3)ns2)n1)C(N)=O` [Example 254, (R)-5-(1-amino-1-oxobutan-2-ylamino)-3-(3-(morpholinomethyl)isothiazol-5-ylamino)pyrazine-2-carboxamide], the IC50 was 100 to 1000 nM.

In the case of `CN(C)c1nc2ccc(Nc3nc(N[C@@H]4CCCC[C@@H]4N)cnc3C(N)=O)cc2o1` [Example 325, 5-((1R,2S)-2-aminocyclohexylamino)-3-(2-(dimethylamino)benzo[d]oxazol-6-ylamino)pyrazine-2-carboxamide], the 50% inhibitory concentration (IC50) fell in the range of 1 to 10 nM.

Take `NC(=O)c1ncc(N[C@@H]2CCNC2)nc1Nc1cnn2ccccc12` [Example 107, (R)-3-(pyrazolo[1,5-a]pyridin-3-ylamino)-5-(pyrrolidin-3-ylamino)pyrazine-2-carboxamide]: the IC50 is 10 to 100 nM.

For `COc1ccc(Nc2nc(N[C@@H]3CCCC(F)(F)[C@@H]3N)cnc2C(N)=O)cc1OC` [Example 165, 5-((1R,2R)-2-amino-3,3-difluorocyclohexylamino)-3-(3,4-dimethoxyphenylamino)pyrazine-2-carboxamide], the concentration for half-maximal inhibition (IC50) fell in the range of 1 to 10 nM.

`NC(=O)c1ncc(N[C@@H]2CCCC[C@@H]2N)nc1Nc1ccc(-n2ccccc2=O)cc1` [Example 440, 5-(((1R,2S)-2-aminocyclohexyl)amino)-3-((4-(2-oxopyridin-1(2H)-yl)phenyl)amino)pyrazine-2-carboxamide]: the IC50 was 10 to 100 nM.

Take `N#CCN1CC[C@@H](Nc2cnc(C(N)=O)c(Nc3cnc4ccncc4c3)n2)C1` [Example 118, (R)-3-((1,6-naphthyridin-3-yl)amino)-5-((1-(cyanomethyl)pyrrolidin-3-yl)amino)pyrazine-2-carboxamide]: the IC50 lay in the range of 100 to 1000 nM.

For the compound `CC(C)C[C@@H](Nc1cnc(C(N)=O)c(Nc2ccc3c(c2)CCC(=O)N3C)n1)C(N)=O` [Example 89, (R)-5-(1-amino-4-methyl-1-oxopentan-2-ylamino)-3-(1-methyl-2-oxo-1,2,3,4-tetrahydroquinolin-6-ylamino)pyrazine-2-carboxamide], the half-maximal inhibitory concentration (IC50) lay within 1 to 10 nM.

In the case of `CC[C@@H](Nc1cnc(C(N)=O)c(Nc2ccc(-c3cccnc3)cc2)n1)C(N)=O` [Example 29, (R)-5-(1-amino-1-oxobutan-2-ylamino)-3-(4-(pyridin-3-yl)phenylamino)pyrazine-2-carboxamide], the IC50 lay in the range of 1 to 10 nM.

For the compound `CC(C)C[C@@H](Nc1cnc(C(N)=O)c(Nc2ccc(-c3ccccn3)cc2)n1)C(N)=O` [Example 88, (R)-5-(1-amino-4-methyl-1-oxopentan-2-ylamino)-3-(4-(pyridin-2-yl)phenylamino)pyrazine-2-carboxamide], the IC50 lay within 1 to 10 nM.

In the case of `CC[C@@H](Nc1cnc(C(N)=O)c(Nc2cnn(C)c2)n1)C(N)=O` [Example 211, (R)-5-(1-amino-1-oxobutan-2-ylamino)-3-(1-methyl-1H-pyrazol-4-ylamino)pyrazine-2-carboxamide], the half-maximal inhibitory concentration (IC50) lay within 100 to 1000 nM.

In the case of `NC(=O)c1ncc(N[C@H](CC2CC2)C(N)=O)nc1Nc1cnc2cccnc2c1` [Example 406, (R)-3-(1,5-naphthyridin-3-ylamino)-5-(1-amino-3-cyclopropyl-1-oxopropan-2-ylamino)pyrazine-2-carboxamide], the IC50 was in the range of 1 to 10 nM.

On to `CC(C)C[C@@H](Nc1cnc(C(N)=O)c(Nc2ccc(C(=O)O)nc2)n1)C(N)=O` [Example 294, (R)-5-(6-(1-amino-4-methyl-1-oxopentan-2-ylamino)-3-carbamoylpyrazin-2-ylamino)picolinic acid], for which the half-maximal inhibitory concentration (IC50) was in the range of 100 to 1000 nM.

Turning to `CC(C)C[C@@H](Nc1cnc(C(N)=O)c(Nc2cncc(Cl)c2)n1)C(N)=O` [Example 216, (R)-5-(1-amino-4-methyl-1-oxopentan-2-ylamino)-3-(5-chloropyridin-3-ylamino)pyrazine-2-carboxamide], the IC50 lay in the range of 1 to 10 nM.

Regarding `Cn1cc(Nc2nc(N[C@@H]3CCCC[C@@H]3N)cnc2C(N)=O)cn1` [Example 186, 5-((1R,2S)-2-aminocyclohexylamino)-3-(1-methyl-1H-pyrazol-4-ylamino)pyrazine-2-carboxamide], the IC50 lay within 10 to 100 nM.

Regarding `Cc1cc(C)cc(Nc2nc(N[C@@H](C(N)=O)C(C)C)cnc2C(N)=O)c1` [Example 163, (R)-5-(1-amino-3-methyl-1-oxobutan-2-ylamino)-3-(3,5-dimethylphenylamino)pyrazine-2-carboxamide], the concentration for half-maximal inhibition (IC50) lay in the range of 10 to 100 nM.

On to `NC(=O)c1ncc(N[C@@H]2CCCC[C@@H]2N)nc1Nc1ccc(C(=O)N2CC(F)(F)C2)nc1` [Example 297, 5-((1R,2S)-2-aminocyclohexylamino)-3-(6-(3,3-difluoroazetidine-1-carbonyl)pyridin-3-ylamino)pyrazine-2-carboxamide], for which the half-inhibitory concentration (IC50) lay in the range of 1 to 10 nM.

Take `CC[C@@H](Nc1cnc(C(N)=O)c(Nc2ccc3ncncc3c2)n1)C(N)=O` [Example 404, (R)-5-(1-amino-1-oxobutan-2-ylamino)-3-(quinazolin-6-ylamino)pyrazine-2-carboxamide]: the IC50 lay in the range of 10 to 100 nM.

For `NC(=O)c1ncc(N[C@@H]2CCCC[C@@H]2N)nc1Nc1cncs1` [Example 449, 5-(((1R,2S)-2-aminocyclohexyl)amino)-3-(thiazol-5-ylamino)pyrazine-2-carboxamide], the IC50 is more than 1000 nM.

Take `NC(=O)c1ncc(N[C@@H]2CCCC(F)(F)[C@@H]2N)nc1Nc1ccc2cnccc2c1` [Example 364, 5-((1R,2R)-2-amino-3,3-difluorocyclohexylamino)-3-(isoquinolin-6-ylamino)pyrazine-2-carboxamide]: the IC50 fell in the range of 1 to 10 nM.

For `COc1ccc(Nc2nc(N[C@@H]3CCCC(F)(F)[C@@H]3N)cnc2C(N)=O)cc1` [Example 24, 5-((1R,2R)-2-amino-3,3-difluorocyclohexylamino)-3-(4-methoxyphenylamino)pyrazine-2-carboxamide], the IC50 lay within 10 to 100 nM.

(Values after patent US9359308B2, “Pyrazine kinase inhibitors” (Portola Pharmaceuticals, Inc., priority 2011, dated 2016).)
